These results are taken from PMC12022751, “In vitro and in silico analysis of synthesized N-benzyl indole-derived hydrazones as potential anti-triple negative breast cancer agents” (RSC Advances, 2025).

Each structure is given as a SMILES string.

Holding throughout (format): cell-based, human
Data set [1] deals with MDA-MB-231 breast cancer cell line. Description: MTT cytotoxicity assay on MDA-MB-231. The conditions noted are these: 48 h incubation; for Viability (%) Breast cancer cell line (MDA-MB-231): test concentration for viability not stated (6.5-50 μM tested); for IC50: triplicate. The procedure:
(§1) All synthesized compounds (5a–5v) were tested using MTT assay at various concentrations (6.5 μM, 12.5 μM, 25 μM, and 50 μM) on the human breast cancer cell line MDA-MB-231. The cytotoxicity of the synthesized analogues was also assessed using human normal breast epithelial cell lines MCF-10A. Table 1 denotes IC50 values, percent inhibition, and cell viability for compounds 5a–v on MDA-MB-231. The dose–response analysis and calculations of IC50 values were performed using IBM SPSS statistics 26. The MTT assay on MDA-MB-231 confirmed the anticancer potential of all compounds. […] We then followed the same protocol as the cancer cells for the non-tumorigenic MCF-10A cells but with different concentrations (6.5 μM, 12.5 μM, 25 μM, and 50 μM). This was done to determine whether the toxic effects of the chemicals were selective for cancer cells compared to non-cancerous cells.
(§2) The in vitro cytotoxicity of the synthetic derivatives was evaluated using an MTT assay against a breast cancer cell line (MDA-MB-231).[33] The normal human breast cell line (MCF-10A) was maintained as a control in this study.[34,35] The cells were grown in DMEM with 10% FBS and 1% antibiotics (100 U mL^−1 penicillin). They were plated in a 96-well plate at a density of 1.0 × 10^4 cells per well and incubated for 24 hours at 37 °C in a 5% CO2 atmosphere. After discarding the medium, both cell lines were treated with various concentrations (6.5 μM, 12.5 μM, 25 μM, and 50 μM) of synthetic triazole derivatives.[36] After 48 h of incubation, [37] 20 μL of MTT solution (5 mg mL^−1) was added to each well and incubated for an additional 4 hours. After incubation, the medium was removed, and the formazan precipitate was dissolved in DMSO. The absorbance of the mixture was then measured at 570 nm using a microplate reader. All experiments were performed in triplicate, and the cytotoxicity was expressed as a percentage of cell viability compared to untreated control cells as per an earlier reported protocol by Sakhi et al.:[36]1 [drawing 1]

The test system of data set [2] is MCF-10A normal breast epithelial cell line. Nature of the data set: MTT cytotoxicity assay on normal MCF-10A cells. The conditions noted are these: Homo sapiens, MCF-10A, 48 h incubation. How it is done: as §1, §2
Data set [3] in a line: MTT cytotoxicity assay on normal MCF-10A cells. The conditions noted are these: human, MCF-10A normal breast epithelial cells, 48 h incubation, test concentration for viability not stated (6.5-50 μM tested), read-out: Viability (%) Normal cell line (MCF-10A). The procedure: as §1, §2

Turning to `COc1ccc(C(=O)NN=Cc2cn(Cc3ccccc3)c3ccccc23)cc1` [Compound 5a, (E)-N′-[(1-benzyl-1H-indol-3-ylmethylene]-4-methoxybenzohydrazide], the “Viability (%) Breast cancer cell line (MDA-MB-231)” value in data set [1] is recorded as 32.45%. Further, the 50% inhibitory concentration (IC50) in data set [1] (Homo sapiens, MDA-MB-231, 48 h) is 25.6 ± 0.4 µM; in data set [2] it was above 50 µM. The viability at 48 h in data set [3] turned out to be 82.7%.
Regarding `O=C(NN=Cc1cn(Cc2ccccc2)c2ccccc12)c1ccccc1` [Compound 5b, (E)-N′-[(1-benzyl-1H-indo1-3-yl)methylene]benzohydrazide], the “Viability (%) Breast cancer cell line (MDA-MB-231)” value in data set [1] was 18.56%. For the same molecule, the IC50 in data set [1] (Homo sapiens, MDA-MB-231, 48 h) was 17.2 ± 0.4 µM; in data set [2] it was above 50 µM. Besides, the viability at 48 h in data set [3] is 77.1%.
With `Cc1ccc(C(=O)NN=Cc2cn(Cc3ccccc3)c3ccccc23)cc1F` [Compound 5c, (E)-N′-((l-benzyl-1H-indo1-3-yl)methylenel-3-fluoro-4-methylbenzohydrazide], in data set [1], the “Viability (%) Breast cancer cell line (MDA-MB-231)” value stood at 37.40%. Moreover, the IC50 in data set [1] (Homo sapiens, MDA-MB-231, 48 h) was 27.1 ± 0.4 µM; in data set [2], above 50 µM. Further, the viability at 48 h in data set [3] came out at 85.7%.
The corresponding values for `O=C(Cc1ccc(C(F)(F)F)cc1)NN=Cc1cn(Cc2ccccc2)c2ccccc12` [Compound 5d, (E)-N′-[(1-benzyl-1H-indo1-3-yl)methylene]-2-(4(trifluoromethyl)phenyl)acetohydrazide] are 27.94%, 22.6 ± 0.8 µM, above 50 µM and 80.2%.
With `O=C(NN=Cc1cn(Cc2ccccc2)c2ccccc12)c1cccnc1` [Compound 5e, (E)-N′-[(1-benzyl-1H-indo1-3-yl)methylene]nicotinohydrazide], the “Viability (%) Breast cancer cell line (MDA-MB-231)” value in data set [1] is 31.47%. In addition, the IC50 was 28.2 ± 0.5 µM in data set [1] (Homo sapiens, MDA-MB-231, 48 h) and above 50 µM in data set [2]. For the same molecule, the viability at 48 h in data set [3] was 85.7%.
As to `O=C(NN=Cc1cn(Cc2ccccc2)c2ccccc12)c1ccc(Br)cc1` [Compound 5f, (E)-N′-[(1-benzyl-1H-indo1-3-yl)methylene]-4-bromobenzohydrazide], the “Viability (%) Breast cancer cell line (MDA-MB-231)” value in data set [1] is listed as 25.05%. The concentration for half-maximal inhibition (IC50) is 21.8 ± 0.2 µM in data set [1] (Homo sapiens, MDA-MB-231, 48 h) and above 50 µM in data set [2]. Moreover, the viability at 48 h in data set [3] was determined as 82.4%.
For the molecule `O=C(NN=Cc1cn(Cc2ccccc2)c2ccccc12)c1cc2ccccc2cc1O` [Compound 5g, (E)-N′-[(1-benzyl-1H-indo1-3-yl)methylene]-3-hydroxy-2-naphthohydrazide], the “Viability (%) Breast cancer cell line (MDA-MB-231)” value in data set [1] came to 29.76%. In addition, the half-inhibitory concentration (IC50) in data set [1] (Homo sapiens, MDA-MB-231, 48 h) is 24.4 ± 0.6 µM; in data set [2], above 50 µM. The viability at 48 h in data set [3] worked out at 81.8%.
The corresponding values for `O=C(NN=Cc1cn(Cc2ccccc2)c2ccccc12)c1ccc(C(F)(F)F)cc1` [Compound 5h, (E)-N′-[(1-benzyl-1H-indo1-3-yl)methylene]-4-(trifluoromethyl)benzohydrazide] are 33.07%, 30.8 ± 0.4 µM, above 50 µM and 78.1%.
For the molecule `O=C(NN=Cc1cn(Cc2ccccc2)c2ccccc12)c1ccco1` [Compound 5i, (E)-N′-[(1-benzyl-1H-indo1-3-yl)methylene]furan-2-carbohydrazide], the “Viability (%) Breast cancer cell line (MDA-MB-231)” value in data set [1] is 23.53%. For the same molecule, the IC50 was 19.2 ± 0.4 µM in data set [1]; 17.2 ± 0.4 µM in data set [1] (Homo sapiens, MDA-MB-231, 48 h); above 50 µM in data set [2]. Also, the viability at 48 h in data set [3] was 84.6%.
Consider `O=C(NN=Cc1cn(Cc2ccccc2)c2ccccc12)c1cccc(Cl)c1` [Compound 5j, (E)-N′-[(1-benzyl-1H-indo1-3-yl)methylene]-3-chlorobenzohydrazide], for which the “Viability (%) Breast cancer cell line (MDA-MB-231)” value in data set [1] worked out at 21.87%. Moreover, the IC50 is 22.6 ± 0.1 µM in data set [1] (Homo sapiens, MDA-MB-231, 48 h) and above 50 µM in data set [2]. Besides, the viability at 48 h in data set [3] worked out at 80.8%.
As to `O=C(NN=Cc1cn(Cc2ccccc2)c2ccccc12)c1ccncc1` [Compound 5k, (E)-N′-[(1-benzyl-1H-indo1-3-yl)methylene]isonicotinohydrazide], in data set [1], the “Viability (%) Breast cancer cell line (MDA-MB-231)” value came out at 23.44%. For the same molecule, the IC50 was 21.4 ± 0.2 µM in data set [1] (Homo sapiens, MDA-MB-231, 48 h) and above 50 µM in data set [2]. Further, the viability at 48 h in data set [3] worked out at 80.1%.
Consider `O=C(NN=Cc1cn(Cc2ccccc2)c2ccccc12)c1ccccc1Br` [Compound 5m, (E)-N′-[(1-benzyl-1H-indo1-3-yl)methylene]-2-bromobenzohydrazide], for which, in data set [1], the “Viability (%) Breast cancer cell line (MDA-MB-231)” value is recorded as 29.14%. Moreover, the concentration for half-maximal inhibition (IC50) was 26.4 ± 0.2 µM in data set [1] (Homo sapiens, MDA-MB-231, 48 h) and above 50 µM in data set [2]. For the same molecule, in data set [3], the viability at 48 h was 87.2%.
Turning to `O=C(Cc1ccccc1)NN=Cc1cn(Cc2ccccc2)c2ccccc12` [Compound 5n, (E)-N′-(l-benzyl-1H-indo1-3-yl)methylenel-2-phenylacetohydrazide], the “Viability (%) Breast cancer cell line (MDA-MB-231)” value in data set [1] worked out at 44.16%. Moreover, the IC50 is 43.4 ± 0.2 µM in data set [1] (Homo sapiens, MDA-MB-231, 48 h) and above 50 µM in data set [2]. For the same molecule, the viability at 48 h in data set [3] was determined as 79.8%.
`O=C(NN=Cc1cn(Cc2ccccc2)c2ccccc12)c1ccccc1Cl` [Compound 5o, (E)-N′-((l-benzyl-1H-indo1-3-yl)methylenel-2-chlorobenzohydrazide]: in data set [1], the “Viability (%) Breast cancer cell line (MDA-MB-231)” value came to 20.37%. Further, the IC50 in data set [1] (Homo sapiens, MDA-MB-231, 48 h) is 19.6 ± 0.5 µM; in data set [2], above 50 µM. In addition, the viability at 48 h in data set [3] is 82.3%.
The corresponding values for `O=C(Cc1ccccc1C(F)(F)F)NN=Cc1cn(Cc2ccccc2)c2ccccc12` [Compound 5p, (E)-N′-[(1-benzyl-1H-indo1-3-yl)methylene]-2-(2-(trifluoromethyl)phenypacetohydrazide] are 25.67%, 24.6 ± 0.1 µM, above 50 µM and 83.1%.
Regarding `O=C(Cc1ccc(F)cc1F)NN=Cc1cn(Cc2ccccc2)c2ccccc12` [Compound 5q, (E)-N′-[(1-benzyl-1H-indo1-3-yl)methylene]-2-(2,4-difluorophenypacetohydrazide], the “Viability (%) Breast cancer cell line (MDA-MB-231)” value in data set [1] was 41.09%. Further, the IC50 in data set [1] (Homo sapiens, MDA-MB-231, 48 h) was 37.6 ± 0.2 µM; in data set [2], above 50 µM. Besides, the viability at 48 h in data set [3] came out at 79.5%.
For the molecule `O=C(Cc1cc(F)cc(F)c1)NN=Cc1cn(Cc2ccccc2)c2ccccc12` [Compound 5r, (E)-N′-[(1-benzyl-1H-indo1-3-yl)methylene]-2-(3,5-difluorophenyl)acetohydrazide], the “Viability (%) Breast cancer cell line (MDA-MB-231)” value in data set [1] was determined as 36.18%. For the same molecule, the IC50 is 31.6 ± 0.1 µM in data set [1] (Homo sapiens, MDA-MB-231, 48 h) and above 50 µM in data set [2]. Further, in data set [3], the viability at 48 h is 84.1%.
In the case of `O=C(Cc1cc(F)ccc1F)NN=Cc1cn(Cc2ccccc2)c2ccccc12` [Compound 5s, (E)-N′-[(1-benzyl-1H-indo1-3-yl)methylene]-2-(2,5-difluorophenyl)acetohydrazide], the “Viability (%) Breast cancer cell line (MDA-MB-231)” value in data set [1] was 38.14%. Moreover, the half-inhibitory concentration (IC50) was 29.4 ± 0.8 µM in data set [1] (Homo sapiens, MDA-MB-231, 48 h) and above 50 µM in data set [2]. For the same molecule, in data set [3], the viability at 48 h worked out at 86.3%.
Consider `O=C(NN=Cc1cn(Cc2ccccc2)c2ccccc12)c1cccc2ccccc12` [Compound 5u, (E)-N′-[(1-benzyl-1H-indo1-3-yl)methylene]-1-naphthohydrazide], for which the “Viability (%) Breast cancer cell line (MDA-MB-231)” value in data set [1] stood at 30.59%. The IC50 was 26.6 ± 0.1 µM in data set [1] (Homo sapiens, MDA-MB-231, 48 h) and above 50 µM in data set [2]. Further, the viability at 48 h in data set [3] was found to be 83.6%.
On to `Cc1ccccc1C(=O)NN=Cc1cn(Cc2ccccc2)c2ccccc12` [Compound 5v, (E)-N′-[(1-benzyl-1H-indo1-3-yl)methylene]-2-methylbenzohydrazide], for which the “Viability (%) Breast cancer cell line (MDA-MB-231)” value in data set [1] stood at 28.11%. Further, the IC50 in data set [1] is 23.1 ± 0.6 µM; in data set [1] (Homo sapiens, MDA-MB-231, 48 h) it was 29.4 ± 0.8 µM; in data set [2], above 50 µM. For the same molecule, the viability at 48 h in data set [3] came to 81%.
